Results taken from patent US10752634B2, “Crystalline forms of a brutons tyrosine kinase inhibitor” (Pharmacyclics LLC, priority 2012, dated 2020).
Converted amounts (≈) assume the structure as drawn. Read-outs that look alike come from different tables or passages of the source.

Experiments:
[1] = Thermodynamic aqueous solubility; assay type: physicochemical
Protocol: The suspension was equilibrated at 25° C. for 24 hours then the pH was measured. The suspension was then filtered through a glass fibre C filter. The filtrate was then diluted by an appropriate factor e.g. 101. Quantitation was by HPLC with reference to a standard solution of approximately 0.25 mg/ml in DMSO. Different volumes of the standard, diluted and undiluted sample solutions were injected. The solubility was calculated using the peak areas determined by integration of the peak found at the same retention time as the principal peak in the standard injection.
Analysis was performed on an Agilent HP1100 series system equipped with a diode array detector and using ChemStation software vB.02.01-SR1.

[2] = Solid form stability on storage, by XRPD; assay type: physicochemical; details: for XRPD pattern post storage: stated as property of the form
Protocol: X-Ray powder diffraction patterns were collected on a Bruker AXS C2 GADDS or Bruker AXS D8 diffractometer.
X-Ray Powder Diffraction patterns were collected on a Bruker AXS C2 GADDS diffractometer using Cu Ka radiation (40 kV, 40 mA), automated XYZ stage, laser video microscope for auto-sample positioning and a HiStar 2-dimensional area detector. X-ray optics consists of a single Göbel multilayer mirror coupled with a pinhole collimator of 0.3 mm A weekly performance check is carried out using a certified standard NIST 1976 Corundum (flat plate). The beam divergence, i.e. the effective size of the X-ray beam on the sample, was approximately 4 mm. A θ-θ continuous scan mode was employed with a sample—detector distance of 20 cm which gives an effective 2θ range of 3.2°-29.7°. Typically the sample would be exposed to the X-ray beam for 120 seconds. The software used for data collection was GADDS for WNT 4.1.16 and the data were analysed and presented using Diffrac Plus EVA v11.0.0.2 or v13.0.0.2.
X-Ray Powder Diffraction patterns were collected on a Bruker D8 diffractometer using Cu Ka radiation (40 kV, 40 mA), θ-2θ goniometer, and divergence of V4 and receiving slits, a Ge monochromator and a Lynxeye detector. The instrument is performance checked using a certified Corundum standard (NIST 1976). The software used for data collection was Diffrac Plus XRD Commander v2.5.0 and the data were analysed and presented using Diffrac Plus EVA v11.0.0.2 or v13.0.0.2. Samples were run under ambient conditions as flat plate specimens using powder as received. The sample was gently packed into a cavity cut into polished, zero-background (510) silicon wafer. The sample was rotated in its own plane during analysis. The details of the data collection are: • Angular range: 2 to 42° 2θ • Step size: 0.05° 2θ • Collection time: 0.5 s/step

[3] = for changes in the XRPD after GVS analysis: after GVS isotherm; for mass change: between 0-90% RH
Protocol: Sorption isotherms were obtained using a SMS DVS Intrinsic moisture sorption analyser, controlled by DVS Intrinsic Control software v1.0.0.30. The sample temperature was maintained at 25° C. by the instrument controls. […] The weight change, (mass relaxation) of the sample as a function of % RH was constantly monitored by the microbalance (accuracy ±0.005 mg). Typically 5-20 mg of sample was placed in a tared mesh stainless steel basket under ambient conditions. The sample was loaded and unloaded at 40% RH and 25° C. (typical room conditions). A moisture sorption isotherm was performed as outlined below (2 scans giving 1 complete cycle). The standard isotherm was performed at 25° C. at 10% RH intervals over a 0-90% RH range. Data analysis was undertaken in Microsoft Excel using DVS Analysis Suite v6.0.0.7. The sample was recovered after completion of the isotherm and re-analysed by XRPD.

OCI-Ly10 = assay: Growth inhibition of OCI-Ly10 (ABC-DLBCL) cells; assay type: cell-based; details: Homo sapiens
Excerpt: See U.S. Pat. No. 7,711,492 and Staudt et al., Nature, Vol. 463, Jan. 7, 2010, pp. 88-92, the contents of which are incorporated by reference in their entirety.

**Q.** With C=CC(=O)N1CCC[C@@H](n2nc(-c3ccc(Oc4ccccc4)cc3)c3c(N)ncnc32)C1 [Form A, 1-((R)-3-(4-amino-3-(4-phenoxyphenyl)-1H-pyrazolo[3,4-d]pyrimidin-1-yl)piperidin-1-yl)prop-2-en-1-one] as the molecule, how does the observed aqueous solubility ([1]; about pH 8, stated as property of the form) read?
**A.** about 0.013 mg/mL

**Q.** And the “Solubility in aqueous solution, Conc. Found” value ([1]; pH 8, 25° C., 24 hours)?
**A.** 13 µg/mL (≈ 29.5 µM)

**Q.** And the “XRPD pattern post storage” value ([2]; 25° C. and 97% RH for at least a week)?
**A.** substantially the same

**Q.** And the “XRPD pattern post storage” value ([2]; 40° C. and 75% RH for at least a week)?
**A.** substantially the same

**Q.** What about the crystallinity after storage ([2]; one week storage at 25° C./97% RH) of the same molecule?
**A.** unaffected

**Q.** What about the crystallinity after storage ([2]; one week storage at 40° C./75% RH) of the same molecule?
**A.** unaffected

**Q.** And the “changes in the XRPD after GVS analysis” value [3]?
**A.** No significant changes

**Q.** And the mass change ([3]; 25° C.)?
**A.** < 0.3 % w/w

**Q.** With C=CC(=O)N1CCC[C@@H](n2nc(-c3ccc(Oc4ccccc4)cc3)c3c(N)ncnc32)C1 [Form B, 1-((R)-3-(4-amino-3-(4-phenoxyphenyl)-1H-pyrazolo[3,4-d]pyrimidin-1-yl)piperidin-1-yl)prop-2-en-1-one] as the molecule, how does the “hysteresis in GVS” value ([3]; 0-90% RH, 25° C.) read?
**A.** No hysteresis

**Q.** And the “changes in the XRPD after GVS analysis” value [3]?
**A.** No significant changes

**Q.** And the mass change ([3]; 25° C.)?
**A.** 2.3 % w/w

**Q.** For C=CC(=O)N1CCC[C@@H](n2nc(-c3ccc(Oc4ccccc4)cc3)c3c(N)ncnc32)C1 [Form E, 1-((R)-3-(4-amino-3-(4-phenoxyphenyl)-1H-pyrazolo[3,4-d]pyrimidin-1-yl)piperidin-1-yl)prop-2-en-1-one], which “form conversion on standing and drying” value ([2]; standing at ambient temperature overnight and drying at 40° C. in vacuo for one day) is on record?
**A.** converted to Compound 1, Form A

**Q.** For C=CC(=O)N1CCC[C@@H](n2nc(-c3ccc(Oc4ccccc4)cc3)c3c(N)ncnc32)C1 [Compound 1, 1-((R)-3-(4-amino-3-(4-phenoxyphenyl)-1H-pyrazolo[3,4-d]pyrimidin-1-yl)piperidin-1-yl)prop-2-en-1-one], which EC50 (OCI-Ly10; OCI-Ly10, 1 h, read-out: EC50 1 hour pulse, growth of OCI-Ly10) is on record?
**A.** 50 nM

**Q.** What about the EC50 (OCI-Ly10; OCI-Ly10, read-out: EC50 continuous exposure, growth of OCI-Ly10) of the same molecule?
**A.** 10 nM
